Data set [1] has as its system Alternaria solani. In words: Activity against early blight of tomato caused by Alternaria solani, protective use. Format: in vivo. The note with it: 250 ppm spray, tomato cultivar Large Fruited St. Pierre, visual rating after 5 days, untreated 80%. The protocol:
(§1) For use examples 1 and 2, the active compounds were formulated as a stock solution 15 with 0.25% by weight of active compound in acetone or dimethyl sulfoxide (DMSO). 1% by weight of the emulsifier Uniperol® EL (wetting agent having emulsifying and dispersant action based on ethoxylated alkylphenols) was added to this solution, and the mixture was diluted with water to the desired concentration.
Activity Against Early Blight of Tomato Caused by Alternaria solani, Protective Use
Leaves of potted plants of the tomato cultivar “Large Fruited St. Pierre” were sprayed to runoff point with an aqueous suspension having the concentration of active compound stated below. The next day, the leaves were infected with an aqueous spore suspension of Alternaria solani in a 2% biomalt solution having a density of 0.17×10^6 spores/ml. The plants were then placed in a water-vapor-saturated chamber at 20-22° C. After 5 days, the blight on the untreated but infected control plants had developed to such an extent that the infection could be determined visually in %.

The test system of data set [2] is Erysiphe [syn. Blumeria] graminis forma specialis tritici. In words: Activity against mildew of wheat caused by Erysiphe [syn. Blumeria] graminis forma specialis tritici, protective use. As to conditions: 250 ppm spray, wheat seedlings cultivar Newton, visual rating after 7 days, % of entire leaf area, untreated 90%. Format: in vivo. The protocol:
Activity Against Mildew of Wheat Caused by Erysiphe [syn. Blumeria] graminis form a Specialis tritici, Protective Use
Leaves of wheat seedlings, grown in pots, of the cultivar “Newton” were sprayed to runoff point with an aqueous suspension having the concentration of active compound stated below. The suspension or emulsion was prepared from a stock solution comprising 5% of active compound, 94% of cyclohexanone and 1% of emulsifier (Tween 20) by dilution with water. 3-5 hours after the spray coating had dried on, the […] of wheat (Erysiphe [syn. Blumeria] graminis form a specialis. tritici). The test plants were then placed in a greenhouse at 20-24° C. and 60-90% relative atmospheric humidity. After 7 days, the extent of the mildew development was determined visually in % infection of the entire leaf area.

For data set [3], the system named is Plasmopara viticola. In words: Activity against Peronospora of grapevines caused by Plasmopara viticola, protective use. In kind it is in vivo. As to conditions: 250 ppm spray, grapevine cultivar Müller-Thurgau, visual rating of leaf undersides, untreated 90%. The protocol: as §1
Activity against Peronospora of Grapevines caused by Plasmopara viticola, Protective Use
Leaves of potted grapevines of the cultivar “Müller-Thurgau” were sprayed to runoff point with an aqueous suspension having the concentration of active compound stated below. The next day, the undersides of the leaves were inoculated with an aqueous zoospore suspension of Plasmopara viticola. The grapevines were then initially placed in a water-vapor-saturated chamber at 24° C. for 48 hours and then in a greenhouse at 20-30° C. for 5 days. After this period of time, the plants were again placed in a humid chamber for 16 hours to promote sporangiophore eruption. The extent of the development of the infection on the undersides of the leaves was then determined visually.

In the case of `CCC(C)C(C)c1c(-c2ccc(F)cc2C)c(C)nn2cnnc12` (mixture of isomers) [Example 16], the “Infection [%] at 250 ppm” value in data set [1] worked out at 20%. The same measure, in the same setting: as for `CCCC(C)c1c(-c2ccc(F)cc2C)c(C)nn2cnnc12` (racemic) [Example 13], the figure is 10%. With `CCCC(C)c1c(-c2ccc(C)cc2C)c(C)nn2cnnc12` (racemic) [Example 14], the “Infection [%] at 250 ppm” value in data set [2] came to 20%.

In the case of `CCCC(C)c1c(-c2ccc(F)cc2F)c(C)nn2cnnc12` (single isomer, unassigned) [Example 18], the entries for the “Infection [%] at 250 ppm” value in data set [3] and in data set [2] were 10% and 7%, respectively.

As to `CCCC(C)c1c(-c2ccc(C)cc2F)c(C)nn2cnnc12` (single isomer, unassigned) [Example 19], the “Infection [%] at 250 ppm” value in data set [2] stood at 20%.

On to `CCC(C)C(C)c1c(-c2ccc(C)cc2F)c(C)nn2cnnc12` (single isomer, unassigned) [Example 20], for which the “Infection [%] at 250 ppm” value in data set [2] is listed as 5%. As to `CCCC(C)c1c(-c2ccc(F)cc2F)c(C)nn2cnnc12` (single isomer, unassigned) [Example 21], the “Infection [%] at 250 ppm” value in data set [3] and in data set [2] was 3% each time. `CCC(C)C(C)c1c(-c2ccc(C)cc2F)c(C)nn2cnnc12` (single isomer, unassigned) [Example 22]: in data set [2], the “Infection [%] at 250 ppm” value worked out at 7%. As for `Cc1nn2cnnc2c(CC(C)C)c1-c1ccccc1` [Example 1, 7-Phenyl-8-isobutyl-6-methyl-[1,2,4]triazolo[4,3-b]pyridazine], the “Infection [%] at 250 ppm” value in data set [1] was determined as 10%; in data set [3], 20%. In the case of `Cc1cc(F)ccc1-c1c(C)nn2cnnc2c1CC(C)C` [Example 2], the results for the “Infection [%] at 250 ppm” value in data set [1] and in data set [3] were 15% and 0%, respectively. As for `CCCCc1c(-c2ccc(F)cc2C)c(C)nn2cnnc12` [Example 3], the “Infection [%] at 250 ppm” value was 25% in data set [1] and 0% in data set [3]. In the case of `CCCCc1c(-c2ccc(F)cc2F)c(C)nn2cnnc12` [Example 4], the “Infection [%] at 250 ppm” value came out at 10% in data set [1] and 0% in data set [3]. As for `CCCCc1c(-c2ccc(C)cc2F)c(C)nn2cnnc12` [Example 5], the “Infection [%] at 250 ppm” value in data set [3] is given as 0%. Turning to `Cc1nn2cnnc2c(CC(C)C)c1-c1ccc(F)cc1F` [Example 6], the “Infection [%] at 250 ppm” value in data set [3] is on record as 0%.

On to `Cc1ccc(-c2c(C)nn3cnnc3c2CC(C)C)c(F)c1` [Example 7], for which the “Infection [%] at 250 ppm” value in data set [1] was determined as 20%.

On to `Cc1nn2cnnc2c(C2CCCCC2)c1-c1ccc(F)cc1F` [Example 8], for which the “Infection [%] at 250 ppm” value in data set [1] and in data set [3] was 0% throughout. Consider `Cc1ccc(-c2c(C)nn3cnnc3c2C2CCCCC2)c(C)c1` [Example 9], for which the “Infection [%] at 250 ppm” value in data set [3] turned out to be 20%. For the compound `Cc1cc(F)ccc1-c1c(C)nn2cnnc2c1C1CCCCC1` [Example 10], the “Infection [%] at 250 ppm” value in data set [3] stood at 0%. On to `Cc1nn2cnnc2c(CCC(C)(C)C)c1-c1ccc(F)cc1F` [Example 11], for which the “Infection [%] at 250 ppm” value was 20% in data set [1] and 0% in data set [3]. Take `Cc1ccc(-c2c(C)nn3cnnc3c2CCC(C)(C)C)c(F)c1` [Example 12]: the “Infection [%] at 250 ppm” value in data set [1] and in data set [3] was 3% each time. Take `Cc1ccc(-c2c(C)nn3cnnc3c2CCC(C)(C)C)c(C)c1` [Example 15]: the “Infection [%] at 250 ppm” value in data set [3] is reported as 3%; in data set [2], 20%. With `CC1CCN(c2c(-c3c(F)cccc3Cl)c(Cl)nc3nnnn23)CC1` [Example 23, 5-Chloro-6-(2-chloro-6-fluorophenyl)-7-(4-methylpiperidin-1-yl)-tetrazolo[1,5-a]pyrimidine], the “Infection [%] at 250 ppm” value in data set [2] is 15%. As for `Cc1nc2c(C#N)ncn2c(N[C@H](C)C(C)C)c1-c1c(F)cc(F)cc1F` [Example 36], the “Infection [%] at 250 ppm” value in data set [1] worked out at 7%. The melting point is the temperature, or range, at which the solid turns liquid. In the case of `Cc1nn2ncnc2c(CC(C)C)c1-c1ccc(F)cc1F` [Example 38, 7-(2,4-Difluorophenyl)-8-isobutyl-6-methyl-[1,2,4]triazolo[1,5-b]pyridazine], the melting point lay in the range of 103 to 105 °C.

These data come from patent US20060199801A1, “Heterobicyclic compounds used as fungicides” (priority 2003, published 2006).
